Results as given in US20110250137A1, “RADIOISOTOPE-LABELED LYSINE AND ORNITHINE DERIVATIVES, THEIR USE AND PROCESSES FOR THEIR PREPARATION” (priority 2008, published 2011).
Counter-ions that a name gives are not always drawn.

Tests used:
[1] = Welch et al. 1986; cited from earlier work
[2] = system: A549 (human NSCLC) tumor cells; test: cell competition experiment, uptake of tracer (38) against excess L-ornithine; format: cell-based; conditions: 30 min incubation, 0.25 MBq tracer in PBS, L-ornithine 1 mM
Method: (§1) To determine the specificity of (5R)-[^18F]-fluoromethyl-L-ornithine (38), the fluorinated compound was used as tracer in a cell competition experiment in A549 (human NSCLC) as well as H460 (human NSCLC) tumor cells using an excess of L-ornithine (1 mM) for competition.
(§2) FIG. 1: Examination of biological activity of (5R)-[^18F]-fluoromethyl-L-ornithine (38) from in a cell-competition-experiment. (NCI-H460 and A549 cells, 30 min incubation with 0.25 MBq (5R)-[^18F]-fluoromethyl-L-ornithine in PBS-Puffer, concentration of L-ornithine 1 mM).

[3] = system: H460 (human NSCLC) tumor cells; test: as above; format: cell-based; conditions: 30 min incubation, 0.25 MBq tracer in PBS, L-ornithine 1 mM
Method: as §1, §2

[4] = system: PC3 (prostate) tumor cell line; test: time-dependence of binding of tracer (38) to tumor cell lines; format: cell-based; conditions: 30 min incubation with 0.25 MBq
Method: In a second experiment, the time-dependence of binding of (5R)-[^18F]-fluoromethyl-L-ornithine to several tumor cell lines was determined using A549, H460 as well as PC3 (prostate) and DU145 (prostate) tumor cell lines. After 30 min incubation with 0.25 MBq up to 5% (PC3 cells) of applied dose were bound to the cells (FIG. 2).
FIG. 2: Binding of (5R)-[^18F]-fluoromethyl-L-ornithine (38) to several tumor cell lines. (A549, H460 (both human NSCLC) as well as PC3 and DU145 (both prostate) tumor cell lines were used and incubated with 0.25 MBq (5R)-[^18F]-fluoromethyl-L-ornithine for up to 30 min. The cell-bound fraction of activity was determined after 10 min, 20 min and 30 min.

[5] = system: NCI-H460 (human NSCLC) tumor bearing rats; test: radioactivity in removed organs after the PET-imaging study (biodistribution); format: in vivo, rat; conditions: 98 min p.i.
Method: (§3) Animal experiments. (4S)-[^18F]-fluoro-L-ornithine was examined in NCI-H460 (human NSCLC) tumor bearing rats using PET-Imaging. PET images were obtained from 45 min after administration of the radiotracer (7.16 MBq) for 30 min. […] After the PET-imaging study (98 min p.i.) the rat was sacrificed, several organs were removed and the amount of radioactivity in tissues was measured.

[6] = system: A549 tumor cells; test: cell competition experiment, uptake of tracer (29) against excess L-ornithine; format: cell-based, human; conditions: 0.25 MBq tracer, 1 mM L-ornithine, incubation 30 min
Method: (§4) To determine the specificity of (4S)-[^18F]-fluoro-L-ornithine (29), the fluorinated compound was used as tracer in a cell competition experiment in A549 as well as PC3 tumor cells against an excess of L-Ornithine (1 mM).
(§5) FIG. 4: The specificity of (4S)-[^18F]-fluoro-L-ornithine (29) for uptake into tumor cells was determined in cell competition experiments using A549 as well as PC3 tumor cells. (0.25 MBq of (4S)-[^18F]-fluoro-L-ornithine was used as tracer, an excess of 1 mM L-ornithine was used for saturation of uptake systems, incubation time 30 min).

[7] = system: NCI-H460 (human NSCLC) tumor bearing rats; test: PET-Imaging in tumor bearing rats; format: in vivo, rat
Method: as §3
FIG. 7: PET-Imaging of (4S)-[^18F]-fluoro-L-ornithine (29) in H460 tumor bearing rats. 7.16 MBq of radioactive tracer was injected i.v. into rats. PET images were obtained using the Inveon PET/CT scanner from 45 min p.i. for 30 min.

[8] = system: PC3 tumor cells; test: cell competition experiment, uptake of tracer (29) against excess L-ornithine; format: cell-based; conditions: 0.25 MBq tracer, 1 mM L-ornithine, incubation 30 min
Method: as §4, §5

[9] = system: PC3 cells; test: time dependence of uptake of tracer (29), cell-bound fraction; format: cell-based; conditions: 0.25 MBq, 60 min incubation
Method: (§6) In a second experiment, A549 and PC3 cells were incubated with (4S)-[^18F]-fluoro-L-ornithine for up to 60 min and the cell-bound fraction was determined. Approximately 5% of applied dose was taken up by the cells during the 60 min incubation period (FIG. 5).
(§7) FIG. 5: The time dependence of uptake of (4S)-[^18F]-fluoro-L-ornithine(29) was determined. (A549 and PC3 cells were incubated with 0.25 MBq (4S)-[^18F]-fluoro-L-ornithine for up to 60 min and the cell-bound fraction was determined after 10, 20, 30 and 60 min)

[10] = system: A549 tumor cells; test: retention of activity in tumor cells under efflux conditions; format: cell-based, human; conditions: A549 cells loaded 30 min with 0.25 MBq, then 30 min in new buffer (efflux conditions)
Method: In a third experiment, the retention of activity in tumor cells was examined. A549 cells were incubated with (4S)-[^18F]-fluoro-L-ornithine for 30 min. After this time, cells were incubated with new buffer (without radiotracer) for up to 30 min. The release of radioactivity into the supernatant as well as the retention inside the cells was examined. It was discovered, that approximately 66% of activity were retained in the tumor cells after 30 min under efflux conditions (FIG. 6).
FIG. 6: Examination of retention of (4S)-[^18F]-fluoro-L-ornithine (29) in A549 tumor cells. A549 cells were loaded with 0.25 MBq (4S)-[^18F]-fluoro-L-ornithine for 30 min in PBS. After washing, the cells were incubated with new buffer (without activity) for additional 10, 20, 30 min. The release of radioactivity into the supernatant as well as the retention inside the cells was determined.

[11] = system: A549 cells; test: time dependence of uptake of tracer (29), cell-bound fraction; format: cell-based, human; conditions: 0.25 MBq, 60 min incubation
Method: as §6, §7

[12] = system: A549 cells; test: cell competition experiment using 14C-ornithine as tracer; format: cell-based, human; conditions: 0.1 μCi 14C-ornithine tracer, compound 1 mM, incubation 10 min
Method: (3R)-3-fluoro-L-ornithine-dihydrochloride (31) was used in a cell competition experiment using ^14C-ornithine as tracer.
FIG. 3: The specificity of (3R)-3-fluoro-L-ornithine-dihydrochloride (31) to compete for ^14C-Ornithine uptake was determined in a cell competition experiment in A549 cells. (0.1 μCi ^14C-Ornithine was used as tracer, (3R)-3-fluoro-L-ornithine-dihydrochloride was used at a concentration of 1 mM, incubation period 10 min).

[13] = PET from 45 min p.i. for 30 min, 7.16 MBq i.v., H460 tumor

Compound: [^18F]fluoro-putricine
- in-vivo release of free [18F]fluoride [1]: relatively high in-vivo release of free [^18F]fluoride

Compound: N[C@@H](C[18F])CC[C@H](N)C(=O)O [Example 38, (5R)-[^18F]-fluoromethyl-L-ornithine]
- uptake of tracer blockable by excess of L-ornithine [2]: blockable by excess of L-ornithine
- uptake of tracer blockable by excess of L-ornithine [3]: blockable by excess of L-ornithine
- applied dose bound to the cells [4]: up to 5 % of applied dose

Compound: NC[C@@H]([18F])C[C@H](N)C(=O)O [Example 29, (4S)-[^18F]-fluoro-L-ornithine]
- radioactivity in blood ([5]; blood): 0.38 % ID/g
- radioactivity in bone ([5]; bone): 2.08 % ID/g
- radioactivity in brain ([5]; brain): 0.24 % ID/g
- radioactivity in heart ([5]; heart): 0.44 % ID/g
- radioactivity in kidney ([5]; kidney): 1.18 % ID/g
- radioactivity in liver ([5]; liver): 0.39 % ID/g
- radioactivity in lung ([5]; lung): 0.44 % ID/g
- radioactivity in pancreas ([5]; pancreas): 2.47 % ID/g
- radioactivity in tumor ([5]; tumor): 1.43 % ID/g
- uptake of tracer blockable by excess of ornithine [6]: blockable by excess of ornithine
- injected dose per gram tumor by ROI analyses [7, 13]: up to 2.2 % injected dose per gram
- tumor visualization in PET images [7, 13]: very well visualized
- defluorination in vivo, uptake of released [F18]-fluoride in the bones ([7]; later time points of PET study): Some partial defluorination
- uptake of tracer blockable by excess of ornithine [8]: blockable by excess of ornithine
- applied dose taken up by the cells [9]: Approximately 5 % of applied dose
- activity retained in the tumor cells [10]: approximately 66%
- applied dose taken up by the cells [11]: Approximately 5 % of applied dose

Compound: NCC[C@@H](F)[C@H](N)C(=O)O [Example 31, (3R)-3-fluoro-L-ornithine-dihydrochloride]
- block of uptake of 14C-ornithine [12]: can block uptake of ^14C-ornithine in A549 cells to a large extent
